# ChEMBL document CHEMBL4842348 (J Med Chem, 2021)
# Assay: Lipophilicity, logD of the compound at pH 7.3 by HPLC analysis
# Format: physicochemical
# Conditions: buffer
row,Compound,logD
1,COc1ncc(-c2ccc(C(=O)O)cc2C)cc1-c1c(C)cc(C(F)(F)F)cc1[C@@H]1CC[C@H]2[C@@H](c3cc(C(F)(F)F)cc(C(F)(F)F)c3)OC(=O)N12,5.7
2,COc1ccc(-c2c(C)cc(C(=O)O)cc2C)cc1-c1ncc(C(F)(F)F)cc1[C@@H]1CC[C@H]2[C@@H](c3cc(C(F)(F)F)cc(C(F)(F)F)c3)OC(=O)N12,4.8
3,COc1ncc(-c2ccc(C(=O)O)cc2C)cc1-c1ncc(C(F)(F)F)cc1[C@@H]1CC[C@H]2[C@@H](c3cc(C(F)(F)F)cc(C(F)(F)F)c3)OC(=O)N12,4.5
4,COc1ncc(-c2c(C)cc(C(=O)O)cc2C)cc1-c1ccc(C(F)(F)F)nc1[C@@H]1CC[C@H]2[C@@H](c3cc(C(F)(F)F)cc(C(F)(F)F)c3)OC(=O)N12,5.8
5,COc1ccc(-c2ccc(C(=O)O)cc2C)cc1-c1cnc(N(C)C)nc1CN1C(=O)O[C@H](c2cncc(C(F)(F)F)c2)[C@@H]1C,3.3
6,CCc1ncc(-c2cc(-c3ccc(C(=O)O)cc3C)ccc2OC)c(CN2C(=O)O[C@H](c3cc(C(F)(F)F)cc(C(F)(F)F)c3)[C@@H]2C)n1,4.5
7,COc1ccc(-c2ccc(C(=O)O)cc2C)cc1-c1cnc(N(C)C)nc1CN1C(=O)O[C@H](c2cc(F)cc(F)c2)[C@@H]1C,3.8
8,COc1ccc(-c2ccc(C(=O)O)cc2C)cc1-c1cnc(N2CCCC2)nc1CN1C(=O)O[C@H](c2cc(C(F)(F)F)cc(C(F)(F)F)c2)[C@@H]1C,5.2
9,COc1ccc(-c2ccc(C(=O)O)cc2C)cc1-c1cnc(N(C)C)nc1CN1C(=O)O[C@H](c2ccc(OC(F)(F)F)cc2)[C@@H]1C,4.3
10,COc1ncc(-c2ccc(C(=O)O)cc2C)cc1-c1ccc(C(F)(F)F)cc1CN1C(=O)O[C@H](c2cc(C(F)(F)F)cc(C(F)(F)F)c2)[C@@H]1C,5.4
11,COc1ncc(-c2ccc(C(=O)O)cc2C)cc1-c1cnc(C(F)(F)F)nc1CN1C(=O)O[C@H](c2cc(C(F)(F)F)cc(C(F)(F)F)c2)[C@@H]1C,4.9
12,COc1ccc(-c2ccc(C(=O)O)cc2C)cc1-c1cnc(N(C)C)nc1CN1C(=O)O[C@H](c2cc(Cl)cc(C(F)(F)F)c2)[C@@H]1C,4.6
13,COc1ccc(-c2ccc(C(=O)O)cc2C)cc1-c1cnc(N(C)C)nc1CN1C(=O)O[C@H](c2ccnc(C(F)(F)F)c2)[C@@H]1C,3.2
14,COc1ccc(-c2ccc(C(=O)O)cc2C)cc1-c1cnc(N(C)C)nc1CN1C(=O)O[C@H](c2cccc(Cl)c2)[C@@H]1C,4
15,COc1ccc(-c2ccc(C(=O)O)cc2C)cc1-c1cnc(N2CCOCC2)nc1CN1C(=O)O[C@H](c2cc(C(F)(F)F)cc(C(F)(F)F)c2)[C@@H]1C,4.8
16,COc1ccc(-c2ccc(C(=O)O)cc2C)cc1-c1cnc(N(C)C)nc1CN1C(=O)O[C@H](c2cccc(OC(F)(F)F)c2)[C@@H]1C,4.3
17,COc1ccc(-c2ccc(C(=O)O)cc2C)cc1-c1cnc(N(C)C)nc1CN1C(=O)O[C@H](c2cccc(C(F)(F)F)n2)[C@@H]1C,3.8
18,COc1ccc(-c2ccc(C(=O)O)cc2C)cc1-c1cnc(C(F)(F)F)cc1CN1C(=O)O[C@H](c2cc(C(F)(F)F)cc(C(F)(F)F)c2)[C@@H]1C,4.7
19,COc1ccc(-c2ccc(C(=O)O)cc2C)cc1-c1cnc(N(C)C)nc1CN1C(=O)O[C@H](c2cccc(C(F)(F)F)c2)[C@@H]1C,4.1
20,COc1ncc(-c2ccc(C(=O)O)cc2C)cc1-c1cnc(C(F)(F)F)cc1CN1C(=O)O[C@H](c2cc(C(F)(F)F)cc(C(F)(F)F)c2)[C@@H]1C,4.5
21,COc1ccc(-c2ccc(C(=O)O)cc2C)cc1-c1cnc(N(C)C)nc1CN1C(=O)O[C@H](c2cc(Cl)cc(Cl)c2)[C@@H]1C,4.6

# Further lines, results first:
row,logD,Compound
1,7.1,COc1cc(F)c(C(C)C)cc1-c1ccc(C(F)(F)F)cc1[C@@H]1CC[C@H]2[C@@H](c3cc(C(F)(F)F)cc(C(F)(F)F)c3)OC(=O)N12
2,7,COc1cc(F)c(C(C)C)cc1-c1ccc(C(F)(F)F)cc1[C@@H]1CC[C@H]2[C@@H](c3cc(C)cc(C(F)(F)F)c3)OC(=O)N12
3,6.3,COc1cc(F)c(C(C)C)cc1-c1ccc(C(F)(F)F)cc1[C@@H]1CC[C@H]2[C@@H](c3cc(F)cc(C(F)(F)F)c3)OC(=O)N12
4,6.1,COc1cc(F)c(C(C)C)cc1-c1ccc(C(F)(F)F)cc1[C@@H]1CC[C@H]2[C@@H](c3cccc(C(F)(F)F)c3)OC(=O)N12
5,6.1,COc1cc(F)c(C(C)C)cc1-c1ccc(C(F)(F)F)cc1[C@@H]1CC[C@H]2[C@@H](c3cc(Cl)cc(Cl)c3)OC(=O)N12
6,6.5,COc1cc(F)c(C(C)C)cc1-c1ccc(C(F)(F)F)cc1[C@@H]1CC[C@H]2[C@@H](c3cc(Cl)cc(C(F)(F)F)c3)OC(=O)N12
7,7,COc1cc(F)c(C(C)C)cc1-c1cnc(N(C)C)cc1[C@@H]1CC[C@H]2[C@@H](c3cc(C(F)(F)F)cc(C(F)(F)F)c3)OC(=O)N12
8,4.6,COc1ccc(-c2ccc(C(=O)O)cc2C)cc1-c1cnc(N(C)C)cc1[C@@H]1CC[C@H]2[C@@H](c3cc(C(F)(F)F)cc(C(F)(F)F)c3)OC(=O)N12
9,7,COc1cc(F)c(C(C)C)cc1-c1ccc(F)cc1[C@@H]1CC[C@H]2[C@@H](c3cc(C(F)(F)F)cc(C(F)(F)F)c3)OC(=O)N12
10,5.8,COc1ccc(-c2ccc(C(=O)O)cc2C)cc1-c1ccc(N(C)C)nc1[C@@H]1CC[C@H]2[C@@H](c3cc(C(F)(F)F)cc(C(F)(F)F)c3)OC(=O)N12
11,6.9,COc1cc(F)c(C(C)C)cc1-c1ccc(N(C)C)nc1[C@@H]1CC[C@H]2[C@@H](c3cc(C(F)(F)F)cc(C(F)(F)F)c3)OC(=O)N12
12,7,COc1cc(F)c(C(C)C)cc1-c1cnc(N(C)C)nc1[C@@H]1CC[C@H]2[C@@H](c3cc(C(F)(F)F)cc(C(F)(F)F)c3)OC(=O)N12
13,4.6,COc1ncc(-c2ccc(C(=O)O)cc2C)cc1-c1cnc(C(F)(F)F)cc1[C@@H]1CC[C@H]2[C@@H](c3cc(C(F)(F)F)cc(C(F)(F)F)c3)OC(=O)N12
14,6,COc1cc(F)c(-c2ccc(C(=O)O)cc2C)cc1-c1cc(C)c(C(F)(F)F)cc1[C@@H]1CC[C@H]2[C@@H](c3cc(C(F)(F)F)cc(C(F)(F)F)c3)OC(=O)N12
15,5.8,COc1ncc(-c2ccc(C(=O)O)cc2C)cc1-c1cc(C)c(C(F)(F)F)cc1[C@@H]1CC[C@H]2[C@@H](c3cc(C(F)(F)F)cc(C(F)(F)F)c3)OC(=O)N12
16,6,COc1ccc(-c2ccc(C(=O)O)cc2C)cc1-c1c(C)cc(C(F)(F)F)cc1[C@@H]1CC[C@H]2[C@@H](c3cc(C(F)(F)F)cc(C(F)(F)F)c3)OC(=O)N12
17,4.8,COc1cc(F)c(-c2ccc(C(=O)O)cc2C)cc1-c1cnc(C2CC2)cc1[C@@H]1CC[C@H]2[C@@H](c3cc(C(F)(F)F)cc(C(F)(F)F)c3)OC(=O)N12
18,4.8,COc1ccc(-c2ccc(C(=O)O)cc2C)cc1-c1cnc(C(F)(F)F)cc1[C@@H]1CC[C@H]2[C@@H](c3cc(C(F)(F)F)cc(C(F)(F)F)c3)OC(=O)N12
19,5.4,COc1ccc(-c2c(C)cc(C(=O)O)cc2C)cc1-c1ccc(C(F)(F)F)cc1[C@@H]1CC[C@H]2[C@@H](c3cc(C(F)(F)F)cc(C(F)(F)F)c3)OC(=O)N12
20,4.6,COc1ccc(-c2ccc(C(=O)O)cc2C)cc1-c1ncc(C(F)(F)F)cc1[C@@H]1CC[C@H]2[C@@H](c3cc(C(F)(F)F)cc(C(F)(F)F)c3)OC(=O)N12
21,5.1,COc1cc(F)c(-c2ccc(C(=O)O)cc2C)cc1-c1ccc(F)cc1[C@@H]1CC[C@H]2[C@@H](c3cc(C(F)(F)F)cc(C(F)(F)F)c3)OC(=O)N12
